The record followed here is article PMC3953198 (Journal of medicinal chemistry, 2013).

In one data set the target is EphA2 receptor (Mus musculus, UniProt Q03145). It counts as binding. Conditions: for activity in the binding assay (in words): EphA2-ephrin-A1 ELISA. A general note: In an ELISA, binding on a coated surface is turned into a signal by an enzyme label.
In another data set the test system is PC3 cells. Put plainly: LDH assay. It counts as cell-based, human. The settings on record: 2 h, at the tested concentrations.

SMILES strings stand for the structures. Some results are limits rather than exact numbers.

EphA2 receptor, sequence (Q03145 26-538 limits assumed): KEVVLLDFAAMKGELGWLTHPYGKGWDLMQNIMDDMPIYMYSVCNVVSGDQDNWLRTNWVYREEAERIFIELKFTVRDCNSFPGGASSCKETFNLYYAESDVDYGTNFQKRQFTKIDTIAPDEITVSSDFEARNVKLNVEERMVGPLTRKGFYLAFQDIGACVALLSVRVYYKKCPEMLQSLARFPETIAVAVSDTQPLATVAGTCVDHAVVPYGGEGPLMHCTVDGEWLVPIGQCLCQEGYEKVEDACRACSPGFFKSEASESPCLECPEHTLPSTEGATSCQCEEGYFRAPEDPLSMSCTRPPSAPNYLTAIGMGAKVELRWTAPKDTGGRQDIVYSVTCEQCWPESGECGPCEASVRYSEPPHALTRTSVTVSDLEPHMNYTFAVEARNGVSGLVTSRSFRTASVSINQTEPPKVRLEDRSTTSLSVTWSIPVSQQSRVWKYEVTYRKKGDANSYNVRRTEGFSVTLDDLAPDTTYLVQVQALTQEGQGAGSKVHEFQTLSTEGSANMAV

Consider `C[C@H](CCC(=O)NCC(=O)O)[C@H]1CC[C@H]2[C@@H]3CC[C@@H]4C[C@H](O)CC[C@]4(C)[C@H]3CC[C@]12C` [Compound 2, glycolithocholic acid], for which, at EphA2 receptor (100 μM compound for 1 hour, with or without washing before 50 ng/mL ephrin-A1-Fc), the reversibility of binding entry was “reversible binder”. Further, at EphA2 receptor (from Schild plot), the “nature of the antagonism” value is given as “competitive binding”.

For orientation: IC50 means the midpoint of a concentration-inhibition curve. The low end stands for higher potency, the high end for lower potency. As to `CC(=O)CNC(=O)CC[C@@H](C)[C@H]1CC[C@H]2[C@@H]3CC[C@@H]4C[C@H](O)CC[C@]4(C)[C@H]3CC[C@]12C` [Compound 3], on EphA2 receptor, the concentration for half-maximal inhibition (IC50) was above 316 µM and the “activity in the binding assay (in words)” value was “inactive”.

`C[C@H](CCC(=O)N[C@@H](CC(N)=O)C(=O)O)[C@H]1CC[C@H]2[C@@H]3CC[C@@H]4C[C@H](O)CC[C@]4(C)[C@H]3CC[C@]12C` [Compound 10]: the IC50 at EphA2 receptor was above 316 µM.

On EphA2 receptor, `C[C@H](CCC(=O)N[C@H](CC(N)=O)C(=O)O)[C@H]1CC[C@H]2[C@@H]3CC[C@@H]4C[C@H](O)CC[C@]4(C)[C@H]3CC[C@]12C` [Compound 11] yielded an IC50 above 316 µM.

For the compound `C[C@H](CCC(=O)N[C@@H](CC(=O)O)C(=O)O)[C@H]1CC[C@H]2[C@@H]3CC[C@@H]4C[C@H](O)CC[C@]4(C)[C@H]3CC[C@]12C` [Compound 12], at EphA2 receptor, the IC50 is above 316 µM and the “activity in the binding assay (in words)” value is “inactive”.

Turning to `C[C@H](CCC(=O)N[C@H](CC(=O)O)C(=O)O)[C@H]1CC[C@H]2[C@@H]3CC[C@@H]4C[C@H](O)CC[C@]4(C)[C@H]3CC[C@]12C` [Compound 13], on EphA2 receptor, the IC50 was above 316 µM and the “activity in the binding assay (in words)” value was “inactive”.

Regarding `C[C@H](CCC(=O)N[C@@H](Cc1c[nH]c2ccccc12)C(=O)O)[C@H]1CC[C@H]2[C@@H]3CC[C@@H]4C[C@H](O)CC[C@]4(C)[C@H]3CC[C@]12C` [Compound 20], the “cytotoxic effect (LDH assay)” value in the data set on PC3 cells is listed as “nor had cytotoxic effect”.
